Consider 1 substance from patent US10646565B2, “Treatment of alzheimer'S disease (AD) with an aluminum salt” (AFFIRIS AG, priority 2014, dated 2020).

For one data set, the system named is human Aβ1-40/42. Description: ELISA reactivity of vaccination induced Abs towards human Aβ1-40/42 in Tg2576-mice. The class given is in vivo. Particulars: 6x s.c. at 4-week intervals, plasma at sacrification, background 1/100, FIG. 6B. On the technique in general: An ELISA detects its analyte on a solid surface through an enzyme-linked reagent.
Another data set concerns the target T1, Ovalbumin (Gallus gallus, UniProt P01012).
T1 sequence (P01012 1-386): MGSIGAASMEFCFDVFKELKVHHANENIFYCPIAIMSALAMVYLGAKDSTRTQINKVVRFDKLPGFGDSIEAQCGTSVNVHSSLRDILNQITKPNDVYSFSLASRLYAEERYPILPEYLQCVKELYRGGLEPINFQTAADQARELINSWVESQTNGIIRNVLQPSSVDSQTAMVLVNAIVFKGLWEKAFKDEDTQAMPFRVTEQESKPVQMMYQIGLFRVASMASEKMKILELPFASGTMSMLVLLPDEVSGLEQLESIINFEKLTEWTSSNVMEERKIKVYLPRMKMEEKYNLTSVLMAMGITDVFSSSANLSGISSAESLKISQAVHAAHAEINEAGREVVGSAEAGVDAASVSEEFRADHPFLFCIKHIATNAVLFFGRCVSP
Conditions: pH 7.4; cited from earlier work.

Entries after “also recorded” stand apart in the source; their conditions may differ.

Procedure for human Aβ1-40/42: Alum doses used were equivalent to 2 mg/ml. Vaccination induced Abs were measured in plasma samples taken at sacrification (SeqID 1 (n=10), SeqID (n=8), KLH-Alum (n=10) and Alum only (n=8)). Samples were analyzed for their concentration of IgG Abs against specific peptides. Values depicted are the titer calculated as OD max/2 (at 405 nm) plus SEM. […] Background for this assay was set to 1/100, indicated by black lines and an asterisk in A+B.
Substrates used include human (BACHEM, CH) Aβ1-40/42 (at 5 μg/ml), KLH (1 μg/ml) and peptide-Bovine serum albumin (BSA) conjugates (SeqID 1 and SeqID 2, 1 μM). Optical density (OD) was measured at 405 nm using a micro-well reader (Tecan, CH). ODmax/2 was calculated.
To test the immunogenicity of two Aβ targeting vaccines SeqID 1-KLH-Alum and SeqID 2-KLH Alum in comparison to KLH-Alum and Alum (Aluminium-oxyhydroxide) only, Tg2576-mice were injected 6×, s.c., at 4-week intervals with either conjugate-vaccine containing 30 μg net peptide, equivalent doses of KLH formulated with Alum or Alum only.

As for aluminium oxyhydroxide, the “Abs reactivity towards human Aβ1-40/42” value with human Aβ1-40/42 is given as “did not elicit signals above background; also recorded: do not show reactivity above background”. Moreover, at Ovalbumin, the “maximal binding capacity to Ovalbumin (pI 4.6)” value is listed as 1.6±0.1 mg protein/mg aluminum.
